This experiment addresses human factor Xa (FXa) (Homo sapiens, UniProt P00742). The experiment is described as follows: Determination of the factor Xa inhibition (chromogenic substrate). The class given is biochemical. Conditions: human FXa 0.5 nmol/l, 150 μmol/l Pefachrome FXa, 25° C., pH 8.3. Here is the method:
The enzymatic activity of human factor Xa (FXa) is measured using the conversion of a chromogenic substrate specific for FXa. Factor Xa cleaves p-nitroaniline from the chromogenic substrate. The determinations are carried out in microtiter plates as follows:
The test substances, in various concentrations, are dissolved in DMSO and incubated for 10 minutes at 25° C. with human FXa (0.5 nmol/l dissolved in 50 mmol/l of Tris buffer [C,C,C-tris(hydroxymethyl)aminomethane], 150 mmol/l of NaCl, 0.1% BSA [bovine serum albumin], pH=8.3). Pure DMSO is used as control. The chromogenic substrate (150 μmol/l Pefachrome® FXa from Pentapharm) is then added. After an incubation time of 20 minutes at 25° C., the extinction at 405 nm is determined.
Chain of human factor Xa (FXa) (P00742 235-488 limits assumed): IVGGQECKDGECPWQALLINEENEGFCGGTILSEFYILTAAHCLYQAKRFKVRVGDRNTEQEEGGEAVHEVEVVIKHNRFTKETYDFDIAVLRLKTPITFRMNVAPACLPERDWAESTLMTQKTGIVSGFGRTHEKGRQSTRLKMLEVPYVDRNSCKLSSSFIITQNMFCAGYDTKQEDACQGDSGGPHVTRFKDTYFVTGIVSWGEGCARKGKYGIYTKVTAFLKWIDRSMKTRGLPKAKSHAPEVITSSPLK
Chain of human factor Xa (FXa) (P00742 41-179 partner limits assumed): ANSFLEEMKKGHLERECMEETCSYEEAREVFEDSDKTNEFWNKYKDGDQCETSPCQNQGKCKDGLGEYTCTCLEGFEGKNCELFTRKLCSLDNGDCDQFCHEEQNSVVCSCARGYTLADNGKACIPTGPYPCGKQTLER
For orientation: IC50 means the concentration at which inhibition is half-maximal. Low values mean greater potency, high ones weaker potency. `N=C1OCCN1c1ccc(NC(=O)c2cscc2NC(=O)c2ccc(Cl)s2)cc1` [Example 16, 5-Chloro-N-[4-({[4-(2-imino-1,3-oxazolidin-3-yl)phenyl]amino}carbonyl)-3-thienyl]thiophene-2-carboxamide methanesulfonate] showed an IC50 of 2.2 nM. As to `N=C1OCCN1c1ccc(NC(=O)c2ccc(C(F)(F)F)cc2NC(=O)c2ccc(Cl)s2)cc1` [Example 3, 5-Chloro-N-[2-({[4-(2-imino-1,3-oxazolidin-3-yl)phenyl]amino}carbonyl)-5-(trifluoromethyl)-phenyl]thiophene-2-carboxamide methanesulfonate], the IC50 came to 1.1 nM. Under `N=C1OCCN1c1ccc(NC(=O)c2ccncc2NC(=O)c2ccc(Cl)s2)cc1` [Example 11, 3-{[(5-Chloro-2-thienyl)carbonyl]amino}-N-[4-(2-imino-1,3-oxazolidin-3-yl)phenyl]isonicotinamide methanesulfonate] stands 6.3 nM; under `CSc1nc(NC(=O)c2ccc(Cl)s2)c(C(=O)Nc2ccc(N3CCOC3=N)cc2)s1` [Example 24, 4-{[(5-Chloro-2-thienyl)carbonyl]amino}-N-[4-(2-imino-1,3-oxazolidin-3-yl)phenyl]-2-(methyl-thio)-1,3-thiazole-5-carboxamide methanesulfonate], 0.91 nM. `Cc1cc(NC(=O)c2ccc(Cl)s2)c(C(=O)Nc2ccc(N3CCOC3=N)cc2)cc1N(C)C` [Example 20, 5-Chloro-N-[4-(dimethylamino)-2-({[4-(2-imino-1,3-oxazolidin-3-yl)phenyl]amino}carbonyl)-5-methylphenyl]thiophene-2-carboxamide methanesulfonate]: the IC50 came to 0.66 nM.

Source of the values: patent publication US20100004292A1, “Iminooxazolidine Derivatives and Their Use” (Bayer HealthCare AG, priority 2005, published 2010).
